Four compounds from ChEMBL document CHEMBL1201862, “PubChem BioAssay data set” (2004) can be followed below.

For assay [1], the target named is T1, Intestinal-type alkaline phosphatase (Homo sapiens, UniProt P09923). In words: Dose Response confirmation of uHTS hits from a small molecule inhibitors of human intestinal alkaline phosphatase via a luminescent assay. [Related pubchem assays (depositor defined):AID2544, AID2574]. The class given is functional.
Assay [2] deals with T1, Intestinal-type alkaline phosphatase. Briefly: human intestinal alkaline phosphatase activators, dose response, biochemical, luminescence, uHTS hits (AID 463120). Type of assay: functional.
Another assay concerns the target Mucolipin-3 (Homo sapiens, UniProt Q8TDD5). In words: Fluorescence counterscreen assay for […] agonists: dose response cell-based high-throughput screening assay to identify agonists of the transient receptor potential channel ML3 (TRPML3). [Related pubchem assays: 1424, 1448 ]. The class given is functional.
For a further assay, the target named is Ion channel NompC (Danio rerio, UniProt Q7T1G6). In words: Dose response cell-based high-throughput screening assay for agonists of the transient receptor potential channel N1 (TRPN1). [Related pubchem assays (depositor defined):AID1424, AID1448]. Type of assay: functional.
In a further assay the target is T2, X-box-binding protein 1 (Homo sapiens, UniProt P17861).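 Note: confirmatory dose-response counter-screen serving a CHOP assay.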
T2 sequence (P17861 whole entry): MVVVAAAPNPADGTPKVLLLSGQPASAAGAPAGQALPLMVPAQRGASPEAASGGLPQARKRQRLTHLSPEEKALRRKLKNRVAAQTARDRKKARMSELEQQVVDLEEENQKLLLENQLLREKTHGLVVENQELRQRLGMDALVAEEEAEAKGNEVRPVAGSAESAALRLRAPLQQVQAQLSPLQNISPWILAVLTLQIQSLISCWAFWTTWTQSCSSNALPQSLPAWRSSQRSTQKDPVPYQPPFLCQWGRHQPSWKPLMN
Type of assay: functional, Cricetulus griseus.

Assay [3] deals with DNA damage-inducible transcript 3 protein (Mus musculus, UniProt P35639). Type of assay: functional, Cricetulus griseus.
Assay [4] addresses T3, Interleukin-8 (Homo sapiens, UniProt P10145).
T3 sequence (P10145 whole entry): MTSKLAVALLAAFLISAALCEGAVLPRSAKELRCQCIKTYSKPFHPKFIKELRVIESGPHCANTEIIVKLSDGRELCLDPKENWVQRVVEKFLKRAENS
Briefly: SAR analysis of Tumor necrosis factor alpha (TNF-alpha) induced IL-8 secretion in MCF-7/NOD1 cells - Set 2. [Related pubchem assays (depositor defined):AID1575, AID2250, AID2260]. The class given is functional, cell-based.

For assay [5], the target named is T4, Nucleotide-binding oligomerization domain-containing protein 1 (Homo sapiens, UniProt Q9Y239).
T4 sequence (Q9Y239 whole entry): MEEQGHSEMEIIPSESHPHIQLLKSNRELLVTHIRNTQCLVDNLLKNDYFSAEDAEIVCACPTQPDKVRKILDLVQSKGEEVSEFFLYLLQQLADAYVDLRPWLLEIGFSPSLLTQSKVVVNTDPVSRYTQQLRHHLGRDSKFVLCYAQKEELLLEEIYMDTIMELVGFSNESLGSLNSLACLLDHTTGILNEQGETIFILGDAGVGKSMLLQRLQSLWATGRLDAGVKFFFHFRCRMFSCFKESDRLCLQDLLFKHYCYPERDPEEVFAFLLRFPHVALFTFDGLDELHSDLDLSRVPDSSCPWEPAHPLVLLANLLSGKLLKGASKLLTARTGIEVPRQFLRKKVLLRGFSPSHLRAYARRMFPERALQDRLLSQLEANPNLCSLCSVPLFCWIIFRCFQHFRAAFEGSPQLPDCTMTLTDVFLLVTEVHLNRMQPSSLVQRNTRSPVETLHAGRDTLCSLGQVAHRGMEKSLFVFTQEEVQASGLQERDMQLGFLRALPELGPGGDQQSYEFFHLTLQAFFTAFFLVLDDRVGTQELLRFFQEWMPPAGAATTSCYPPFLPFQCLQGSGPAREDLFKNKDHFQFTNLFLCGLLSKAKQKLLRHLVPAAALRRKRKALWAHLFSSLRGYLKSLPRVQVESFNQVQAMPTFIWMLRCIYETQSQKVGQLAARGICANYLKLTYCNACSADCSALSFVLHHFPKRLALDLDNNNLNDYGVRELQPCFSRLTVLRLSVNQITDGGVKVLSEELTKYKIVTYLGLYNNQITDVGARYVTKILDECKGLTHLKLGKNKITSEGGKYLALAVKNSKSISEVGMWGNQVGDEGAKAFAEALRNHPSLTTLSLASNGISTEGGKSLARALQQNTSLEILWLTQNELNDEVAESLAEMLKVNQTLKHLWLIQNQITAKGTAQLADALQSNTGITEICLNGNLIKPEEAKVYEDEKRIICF
Briefly: SAR analysis of NF-kappaB dependent luciferase using DAP as an inducer - Set 2. [Related pubchem assays (depositor defined):AID1566, AID1575, AID1578, AID1579, AID1849, AID1852, AID2264]. Type of assay: functional.

For assay [6], the system named is HEK293. Briefly: SAR analysis of compounds that are cytotoxic to HEK293 - Set 3. [Related pubchem assays (depositor defined):AID1575, AID1578, AID1848, AID1849, AID2001, AID2333, AID2334, AID2335, AID2337, AID2469]. The settings on record: Homo sapiens. Type of assay: functional, cell-based.
Assay [7] has as its target T5, Nucleotide-binding oligomerization domain-containing protein 2 (Homo sapiens, UniProt Q9HC29). In words: inhibition of MDP-driven NOD2 NF-kB reporter – cell-based, set 3, SAR follow-up (AID 2799). The class given is functional.
Assay [8] has as its target T4, Nucleotide-binding oligomerization domain-containing protein 1. In words: SAR analysis of compounds that inhibit NOD1 - Set 3. [Related pubchem assays (depositor defined):AID1566, AID1575, AID1578, AID1849, AID1852, AID2333, AID2335, AID2466]. Type of assay: functional.
In assay [9] the target is T5, Nucleotide-binding oligomerization domain-containing protein 2. In words: inhibition of NOD2 signaling – set 2, SAR follow-up (AID 2475). Type of assay: functional.
For assay [10], the system named is HEK293. Briefly: SAR analysis of compounds that are cytotoxic to HEK293 - Set 2. [Related pubchem assays (depositor defined):AID1575, AID1578, AID1849, AID2001, AID2333, AID2334, AID2335, AID2337, AID2800]. Type of assay: functional, cell-based. The settings on record: Homo sapiens.
Assay [11] addresses T3, Interleukin-8. In words: SAR analysis of GM-Tri-DAP induced IL-8 secretion in MCF-7/NOD1 cells - Set 2. [Related pubchem assays (depositor defined):AID1575, AID1578, AID2333]. Type of assay: functional, cell-based.
Assay [12] deals with T4, Nucleotide-binding oligomerization domain-containing protein 1. Briefly: SAR analysis of compounds that inhibit NOD1 - Set 2. [Related pubchem assays (depositor defined):AID1566, AID1575, AID1578, AID1849, AID1852, AID2333, AID2335, AID2798]. The class given is functional.
The next assay addresses Tumor necrosis factor (Homo sapiens, UniProt P01375). Briefly: analog potency on TNFa NF-kB signaling – cell-based, set 3, SAR follow-up (AID 2801). The class given is functional.

The source made the active and inactive calls.

T5 sequence (Q9HC29 whole entry, the tested form may be a part): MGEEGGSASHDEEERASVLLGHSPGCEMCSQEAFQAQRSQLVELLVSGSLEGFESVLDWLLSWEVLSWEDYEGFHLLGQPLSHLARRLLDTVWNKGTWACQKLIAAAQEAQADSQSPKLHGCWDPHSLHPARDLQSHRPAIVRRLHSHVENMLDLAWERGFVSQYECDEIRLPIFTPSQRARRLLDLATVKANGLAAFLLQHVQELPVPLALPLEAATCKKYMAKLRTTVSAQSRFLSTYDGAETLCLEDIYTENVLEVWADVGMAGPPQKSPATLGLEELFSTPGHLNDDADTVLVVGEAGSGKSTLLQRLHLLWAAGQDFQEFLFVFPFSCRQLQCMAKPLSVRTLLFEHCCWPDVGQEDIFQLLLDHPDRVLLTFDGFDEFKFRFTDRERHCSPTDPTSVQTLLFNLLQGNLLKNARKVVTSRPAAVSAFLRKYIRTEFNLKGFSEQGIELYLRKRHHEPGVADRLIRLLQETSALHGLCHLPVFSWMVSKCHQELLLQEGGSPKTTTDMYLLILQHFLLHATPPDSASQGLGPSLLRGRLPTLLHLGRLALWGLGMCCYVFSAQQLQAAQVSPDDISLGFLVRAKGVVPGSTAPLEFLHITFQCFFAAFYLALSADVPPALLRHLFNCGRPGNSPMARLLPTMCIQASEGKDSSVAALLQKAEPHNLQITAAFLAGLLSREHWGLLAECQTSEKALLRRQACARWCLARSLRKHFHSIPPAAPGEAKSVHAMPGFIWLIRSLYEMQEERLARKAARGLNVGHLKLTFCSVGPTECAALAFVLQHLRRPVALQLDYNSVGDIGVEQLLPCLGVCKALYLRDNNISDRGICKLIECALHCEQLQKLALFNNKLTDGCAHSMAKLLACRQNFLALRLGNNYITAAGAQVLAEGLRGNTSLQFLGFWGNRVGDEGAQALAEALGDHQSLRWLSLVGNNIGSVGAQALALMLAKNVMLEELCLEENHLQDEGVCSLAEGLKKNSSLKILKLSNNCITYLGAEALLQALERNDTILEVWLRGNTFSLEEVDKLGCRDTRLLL
T1 sequence (P09923 whole entry): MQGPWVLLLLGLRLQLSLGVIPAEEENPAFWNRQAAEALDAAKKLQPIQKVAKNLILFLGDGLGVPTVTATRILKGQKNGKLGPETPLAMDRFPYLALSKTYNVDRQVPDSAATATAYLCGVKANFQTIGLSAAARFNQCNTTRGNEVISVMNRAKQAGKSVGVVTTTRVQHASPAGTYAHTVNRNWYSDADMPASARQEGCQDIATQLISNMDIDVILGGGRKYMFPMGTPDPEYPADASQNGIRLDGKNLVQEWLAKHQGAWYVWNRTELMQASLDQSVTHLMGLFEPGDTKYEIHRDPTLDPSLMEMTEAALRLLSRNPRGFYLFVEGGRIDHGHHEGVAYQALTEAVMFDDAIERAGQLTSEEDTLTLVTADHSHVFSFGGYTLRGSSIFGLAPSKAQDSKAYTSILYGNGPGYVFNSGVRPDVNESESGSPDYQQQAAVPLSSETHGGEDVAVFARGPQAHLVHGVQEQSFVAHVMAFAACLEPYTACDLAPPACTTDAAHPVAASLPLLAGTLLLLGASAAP
Chain of Mucolipin-3 (Q8TDD5 whole entry): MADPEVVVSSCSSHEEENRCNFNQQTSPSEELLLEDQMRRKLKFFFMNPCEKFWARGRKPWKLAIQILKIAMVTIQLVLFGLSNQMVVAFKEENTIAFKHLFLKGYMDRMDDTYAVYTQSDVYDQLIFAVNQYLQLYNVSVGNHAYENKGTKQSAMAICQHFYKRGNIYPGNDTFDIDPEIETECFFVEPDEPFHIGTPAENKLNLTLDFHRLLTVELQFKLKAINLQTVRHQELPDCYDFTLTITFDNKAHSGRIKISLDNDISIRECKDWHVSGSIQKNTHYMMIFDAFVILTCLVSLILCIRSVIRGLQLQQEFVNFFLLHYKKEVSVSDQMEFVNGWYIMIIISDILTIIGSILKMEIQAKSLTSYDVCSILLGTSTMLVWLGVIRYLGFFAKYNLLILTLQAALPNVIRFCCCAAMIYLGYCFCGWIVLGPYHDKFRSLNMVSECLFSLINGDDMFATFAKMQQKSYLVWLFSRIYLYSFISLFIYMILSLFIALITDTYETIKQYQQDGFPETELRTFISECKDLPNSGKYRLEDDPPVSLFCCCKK
Chain of DNA damage-inducible transcript 3 protein (P35639 whole entry): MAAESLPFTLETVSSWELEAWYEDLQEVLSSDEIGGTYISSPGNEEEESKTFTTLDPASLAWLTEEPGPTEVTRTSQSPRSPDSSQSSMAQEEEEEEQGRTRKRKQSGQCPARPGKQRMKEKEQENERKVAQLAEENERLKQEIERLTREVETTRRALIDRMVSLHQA
Chain of Tumor necrosis factor (P01375 whole entry): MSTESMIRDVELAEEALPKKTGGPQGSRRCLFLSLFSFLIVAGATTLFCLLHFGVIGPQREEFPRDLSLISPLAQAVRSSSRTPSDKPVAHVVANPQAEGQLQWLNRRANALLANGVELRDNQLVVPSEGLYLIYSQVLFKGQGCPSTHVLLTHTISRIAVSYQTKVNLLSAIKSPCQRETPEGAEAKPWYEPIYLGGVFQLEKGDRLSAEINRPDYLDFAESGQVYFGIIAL
Chain of Ion channel NompC (Q7T1G6 whole entry): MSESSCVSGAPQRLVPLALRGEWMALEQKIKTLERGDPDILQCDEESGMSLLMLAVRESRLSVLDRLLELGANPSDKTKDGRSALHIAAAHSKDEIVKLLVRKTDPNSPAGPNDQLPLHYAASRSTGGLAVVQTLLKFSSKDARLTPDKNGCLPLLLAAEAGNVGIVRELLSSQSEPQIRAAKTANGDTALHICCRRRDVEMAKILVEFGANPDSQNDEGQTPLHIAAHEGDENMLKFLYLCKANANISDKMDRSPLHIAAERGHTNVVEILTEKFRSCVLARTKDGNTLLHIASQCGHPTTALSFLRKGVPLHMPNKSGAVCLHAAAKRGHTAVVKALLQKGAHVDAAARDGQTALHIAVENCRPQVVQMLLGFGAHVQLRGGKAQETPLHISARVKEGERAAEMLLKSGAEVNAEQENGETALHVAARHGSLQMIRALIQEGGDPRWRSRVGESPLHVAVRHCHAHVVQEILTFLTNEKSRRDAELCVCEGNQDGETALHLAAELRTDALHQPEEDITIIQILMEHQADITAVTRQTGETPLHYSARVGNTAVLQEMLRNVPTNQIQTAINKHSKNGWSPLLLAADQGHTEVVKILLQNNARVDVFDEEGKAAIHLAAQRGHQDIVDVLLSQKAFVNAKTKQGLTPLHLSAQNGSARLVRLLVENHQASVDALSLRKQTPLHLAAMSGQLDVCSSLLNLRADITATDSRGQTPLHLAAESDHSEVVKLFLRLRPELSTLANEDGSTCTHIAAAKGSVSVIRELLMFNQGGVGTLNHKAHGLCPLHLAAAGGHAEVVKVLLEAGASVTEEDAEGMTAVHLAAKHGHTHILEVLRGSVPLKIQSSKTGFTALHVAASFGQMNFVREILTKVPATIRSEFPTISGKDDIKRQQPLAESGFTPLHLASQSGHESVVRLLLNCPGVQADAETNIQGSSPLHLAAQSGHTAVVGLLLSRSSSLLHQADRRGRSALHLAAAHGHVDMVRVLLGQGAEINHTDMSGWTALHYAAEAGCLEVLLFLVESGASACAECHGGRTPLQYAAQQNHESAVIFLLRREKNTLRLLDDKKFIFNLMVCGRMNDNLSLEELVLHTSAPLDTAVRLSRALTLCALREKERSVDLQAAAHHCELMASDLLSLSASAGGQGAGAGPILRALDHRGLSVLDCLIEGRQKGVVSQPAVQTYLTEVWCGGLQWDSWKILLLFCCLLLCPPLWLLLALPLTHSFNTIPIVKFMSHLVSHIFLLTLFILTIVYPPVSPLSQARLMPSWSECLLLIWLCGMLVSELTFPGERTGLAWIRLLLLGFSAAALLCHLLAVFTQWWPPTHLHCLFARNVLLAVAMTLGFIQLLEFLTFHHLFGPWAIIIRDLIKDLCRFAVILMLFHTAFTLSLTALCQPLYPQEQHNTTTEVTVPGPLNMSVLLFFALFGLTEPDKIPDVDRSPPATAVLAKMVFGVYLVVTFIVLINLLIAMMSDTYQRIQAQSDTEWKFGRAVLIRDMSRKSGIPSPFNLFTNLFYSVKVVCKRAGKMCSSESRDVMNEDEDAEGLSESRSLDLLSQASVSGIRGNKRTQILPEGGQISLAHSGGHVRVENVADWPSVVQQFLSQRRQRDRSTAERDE

`COc1ccc(CC2CC(=O)N(c3ccc(C)cc3)C2=O)cc1` (stereo unspecified): the IC50 in [1] was > 100 µM (inactive). Also, the EC50 in assay [2] was > 100 µM (inactive).

Regarding `COC(=O)c1ccc(NC(=O)Nc2cccc(F)c2)cc1`, the EC50 on Mucolipin-3 is > 29.9 µM (not active); on Ion channel NompC, > 29.9 µM (inactive).

On to `CCOC(=O)c1c(-c2ccccc2)oc2ccc(O)c(CN3CCOCC3)c12`, for which the “Absolute IC50 (XBP1)” value on X-box-binding protein 1 is below 10 µM. Further, in assay [3], the “Absolute IC50 (CHOP)” value worked out at 10 µM.

Take `C=CCn1c(SCCCc2ccccc2)nc2c1c(=O)[nH]c(=O)n2C`: the IC50 at Interleukin-8 [4] is > 25 µM (inactive); in assay [5], > 25 µM (inactive); in the assay on HEK293 [6], > 20 µM (inactive); in [7], > 20 µM (inactive); in [8], > 20 µM (inactive); in [9], 14.8 µM (active). For the same compound, the IC50 in the assay on HEK293 [10] was > 20 µM (inactive); on Interleukin-8 [11], > 25 µM (inactive); in assay [12], 9.33 µM (active); on Tumor necrosis factor, > 20 µM (inactive).
